Measurements reported in paper PMC12693327, “SERAAK2 as a Serotonin Receptor Ligand: Structural and Pharmacological In Vitro and In Vivo Evaluation” (Molecules, 2025).
Entries after “also recorded” stand apart in the source; their conditions may differ.

Assays:
mice [1] = assay: Spontaneous locomotor activity; assay type: in vivo; conditions: 60 min before test
Procedure: (§1) The investigated compound (SER2AAK2) was bought from Enamine (purity over 95%) and in all tests was administered intraperitoneally (i.p.), spread in a drop of Tween 80, and diluted with an aqueous solution of 0.5% methylcellulose (tylose) and injected 60 min before the tests in a volume of 10 mL/kg. Control groups received tylose injections of the same volume and via the same route of administration.
Locomotor activity of the mice was assessed using the Opto-Varimex-4 Auto-Track system (Columbus Instruments, OH, USA). Each mouse was placed individually in a testing cage for 25 min—5 min for acclimatization, followed by 20 min of activity recording. (6a) The total distance traveled (in centimeters) was measured. Cages were cleaned with 10% ethanol between sessions.

SH-SY5Y cells = assay: MTS cytotoxicity assay in SH-SY5Y cells; assay type: cell-based, human; conditions: 72 h
Procedure: The cytotoxic potential of SERAAK2 was evaluated in two human-derived cell lines chosen for their physiological relevance: HepG2 (hepatocellular carcinoma) and SH-SY5Y (neuroblastoma). […] It is particularly noteworthy that the use of the SERAAK2 compound at a concentration of 30 µM reduces the number of viable cells below the level of the positive control (doxorubicin) at the same concentration (Table 3). […] Under the experimental conditions used, after 72 h of incubation, a fraction of doxorubicin-treated cells remains metabolically active and generates a low signal in the MTS assay. The enhanced signal reduction observed in the MTS assay for the tested compound, compared to doxorubicin, indicates strong cytotoxic activity leading to necrosis of the entire cell population.
An assessment of the cytotoxic potential of SERAAK2 was carried out utilizing the colorimetric MTS assay. This investigation was executed on both HepG2 and SH-SY5Y cell lines, adhering to an identical procedure. The cell lines, sourced from the American Type Culture Collection (Manassas, VA, USA), were cultured under standard conditions (5% CO2, 37 °C) in DMEM/F12 medium (#31330-038, ThermoFisher Scientific, Waltham, MA, USA). The medium was supplemented with 10% Fetal Bovine Serum (FBS, #A5256801, ThermoFisher Scientific) and a Penicillin–Streptomycin solution (#15140-122, ThermoFisher Scientific) until their use in the study. Cells within passage numbers 15 to 25 were plated in 96-well plates at a density of 5000 cells per well in 200 μL of medium and allowed to adhere during a 24 h incubation at 37 °C with 5% CO2. […] The plates were then subsequently returned to the 37 °C incubator, after which absorbance was recorded with a Spark microplate reader; this measurement occurred after 1 h for the HepG2 line and 3 h for the SH-SY5Y line. The ultimate cell viability percentage was determined by comparing results to the control wells, which represented 100% viability, and the wells treated with 10 μM doxorubicin, which were defined as 0% viability. […]

CYP3A4 = biological target: T1, CYP3A4 (Homo sapiens, UniProt P08684); assay: CYP3A4 luminescent luciferase-based assay (Glo kit); assay type: in vitro ADME; conditions: mean ± SEM, two experiments, n = 3 each, read-out: CYP3A4 Activity Inhibition, Evaluated at the Concentration of 10 µM [% of Inhibition ± SEM]
T1 construct: purchased Promega
Procedure: (§2) The effect of SERAAK2 on the activity of the cytochrome P450 isoforms CYP3A4 and CYP2D6 was tested using commercial luminescence assays (Glo kits bought from Promega, Medison, WI, USA). The experiment was performed twice with triplicate samples, following the manufacturer’s guidelines and established procedures.

mice [2] = assay: Passive avoidance (PA) task, memory consolidation; assay type: in vivo; conditions: 7.5 mg/kg, retention phase, vs vehicle control
Procedure: as §1
The passive avoidance (PA) task measures a long-term memory, as it was reported by Venault et al.. The PA apparatus consists of a two-compartment acrylic box, one illuminated with fluorescent light (8 W) (10 cm × 13 cm × 15 cm) and another darkened (25 cm × 20 cm × 15 cm), connected by a guillotine door. Entrance of the animal to the darkened box was punished by an electric foot shock (0.15 mA for 2 s). The PA procedure was previously described. In particular, on the first day of the experiment [i.e., training (pre-test)], mice were placed individually into the illuminated compartment and allowed to explore this box. […] The latency time for entering the darkened compartment was recorded (TL1). […] The results were expressed as the latency index (LI), calculated by the following formula: TL1−TL2/TL1 where TL1 is the time needed to move to the dark compartment during a training session and TL2 is the time needed to re-enter the dark compartment, measured 24 h after TL1 (retention).

5-HT7 receptor = biological target: 5-HT7 receptor; parameters: method as in PMID 38619283; conditions: cited from earlier work
dopamine D2 receptor = test system: dopamine D2 receptor; parameters: method as in PMID 38619283; conditions: cited from earlier work
5-HT1A receptor = biological target: 5-HT1A receptor; parameters: method as in PMID 38619283; conditions: cited from earlier work
CYP2D6 = CYP2D6 (Homo sapiens, UniProt P10635); assay: CYP2D6 luminescent assay (Glo kit)
Procedure: The inhibitory potential of the compound against the CYP2D6 isoform was evaluated employing a methodology analogous to the CYP3A4 assay, albeit with a different set of reference compounds.
as §2

Sequence of CYP2D6 (P10635 whole entry, canonical isoform): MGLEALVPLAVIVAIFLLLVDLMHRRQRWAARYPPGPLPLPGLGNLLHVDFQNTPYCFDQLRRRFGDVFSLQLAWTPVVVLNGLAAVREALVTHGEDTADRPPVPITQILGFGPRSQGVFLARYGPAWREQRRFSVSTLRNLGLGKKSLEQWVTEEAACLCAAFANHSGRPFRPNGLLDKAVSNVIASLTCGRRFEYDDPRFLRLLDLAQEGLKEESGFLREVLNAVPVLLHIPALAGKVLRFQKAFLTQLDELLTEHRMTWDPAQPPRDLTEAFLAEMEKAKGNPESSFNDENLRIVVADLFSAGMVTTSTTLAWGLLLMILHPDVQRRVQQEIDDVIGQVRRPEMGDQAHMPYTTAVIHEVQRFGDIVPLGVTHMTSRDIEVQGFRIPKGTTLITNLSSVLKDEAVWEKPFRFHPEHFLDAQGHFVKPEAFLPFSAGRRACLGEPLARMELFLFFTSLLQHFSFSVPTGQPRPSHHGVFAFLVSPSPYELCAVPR
T1 sequence (P08684 whole entry): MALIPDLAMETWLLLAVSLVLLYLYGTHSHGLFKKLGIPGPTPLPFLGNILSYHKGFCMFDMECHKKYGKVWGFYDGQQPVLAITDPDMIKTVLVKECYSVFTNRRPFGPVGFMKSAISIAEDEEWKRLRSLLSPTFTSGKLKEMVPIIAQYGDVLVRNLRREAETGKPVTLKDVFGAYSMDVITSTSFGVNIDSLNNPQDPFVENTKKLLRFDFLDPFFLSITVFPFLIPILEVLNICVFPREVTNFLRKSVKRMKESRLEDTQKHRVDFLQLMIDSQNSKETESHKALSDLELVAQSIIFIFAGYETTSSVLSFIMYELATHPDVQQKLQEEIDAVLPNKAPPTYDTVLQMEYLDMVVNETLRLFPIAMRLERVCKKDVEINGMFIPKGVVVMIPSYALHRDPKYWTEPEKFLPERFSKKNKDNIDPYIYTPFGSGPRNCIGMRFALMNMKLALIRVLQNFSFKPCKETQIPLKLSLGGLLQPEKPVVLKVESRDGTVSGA

With `OC(CNCCc1c[nH]c2ccccc12)COc1ccc(Oc2ccccc2)cc1` (centres unmarked) [SERAAK2] the Spontaneous locomotor activity (mice [1]; mice, 7.5 mg/kg i.p., 7.5 mg/kg) was “inactive; also recorded: no effect”, the Spontaneous locomotor activity (mice [1]; mice, 60, 30 and 15 mg/kg i.p., 20 min recording) was “statistically significant reduction in locomotor activity; also recorded: reduced activity” and the “cytotoxic effects in SH-SY5Y cells” value (SH-SY5Y cells; 0.3 µM) was “no cytotoxic effects”. For the same compound, the “Percentage Reduction in the Number of Viable SH-SY5Y Cells [Mean ± SEM]” value (SH-SY5Y cells; 30 µM) was 108 ± 1%, the inhibition at 10 µM (CYP3A4) was 0% and the “PA memory consolidation, latency index” value (mice [2]) was “did not significantly change the latency index; also recorded: no effect on memory consolidation”. The Ki (5-HT7 receptor) was 914 ± 25 nM, the “percent of inhibition at 10 μM, dopamine D2 receptor” value (dopamine D2 receptor) was 23 ± 6% and the Ki (5-HT1A receptor) was 153 ± 0.4 nM. The IC50 (CYP2D6) was 1000 nM and the inhibition at 10 µM (CYP2D6; human) was 90 ± 1%.
